Results from patent publication US12662479B2 (Foghorn Therapeutics Inc., priority 2020, dated 2026).
Structures can show the parent of a compound that is named as a salt.

Experiments:
HiBit-BRM fusion protein = biological target: T1, HiBit-BRM fusion protein (Homo sapiens, UniProt P51531); test: HiBiT-BRM cell-based degradation assay (Nano-Glo HiBiT Lytic Detection, 24 h); settings: HeLa cells expressing HiBiT-BRM; for DC50: read-out: BRM HiBit Degradation IC50; for BRM HiBit Degradation Maximum measured: top dose 30 μM
T1 construct: expressed in transfected cells
Summary of the method: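 Luminescence from reconstituted NanoBiT luciferase in lysed HeLa HiBiT-BRM cells served as the measure of remaining BRM after 24 h treatment. Compounds were tested from 30 μM final downward in 3-fold steps. DMSO and 2 μM of a standard BRM/BRG1 degrader defined the scale limits.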

[1] = biological target: T2, HiBit-BRG1 fusion protein (Homo sapiens, UniProt P51532); test: HiBiT-BRG1 cell-based degradation assay (Nano-Glo HiBiT Lytic Detection, 24 h); settings: HeLa cells expressing HiBit-BRG1 and LgBit; for DC50: read-out: BRG1 HiBit Degradation IC50; for Dmax: HeLa, top dose 30 μM, read-out: BRG1 HiBit Degradation Maximum measured
T2 construct: expressed in transfected cells
Summary of the method: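 Stable HeLa line expressing HiBiT-BRG1 and LgBiT, seeded at 5000 cells/well; luminescence read after lytic Nano-Glo HiBiT reagent and 10 min shaking at RT. % degradation normalised between DMSO (high control) and 2 μM reference BRM/BRG1 degrader (low control).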

T1 sequence (P51531 whole entry, the tested form may be a part): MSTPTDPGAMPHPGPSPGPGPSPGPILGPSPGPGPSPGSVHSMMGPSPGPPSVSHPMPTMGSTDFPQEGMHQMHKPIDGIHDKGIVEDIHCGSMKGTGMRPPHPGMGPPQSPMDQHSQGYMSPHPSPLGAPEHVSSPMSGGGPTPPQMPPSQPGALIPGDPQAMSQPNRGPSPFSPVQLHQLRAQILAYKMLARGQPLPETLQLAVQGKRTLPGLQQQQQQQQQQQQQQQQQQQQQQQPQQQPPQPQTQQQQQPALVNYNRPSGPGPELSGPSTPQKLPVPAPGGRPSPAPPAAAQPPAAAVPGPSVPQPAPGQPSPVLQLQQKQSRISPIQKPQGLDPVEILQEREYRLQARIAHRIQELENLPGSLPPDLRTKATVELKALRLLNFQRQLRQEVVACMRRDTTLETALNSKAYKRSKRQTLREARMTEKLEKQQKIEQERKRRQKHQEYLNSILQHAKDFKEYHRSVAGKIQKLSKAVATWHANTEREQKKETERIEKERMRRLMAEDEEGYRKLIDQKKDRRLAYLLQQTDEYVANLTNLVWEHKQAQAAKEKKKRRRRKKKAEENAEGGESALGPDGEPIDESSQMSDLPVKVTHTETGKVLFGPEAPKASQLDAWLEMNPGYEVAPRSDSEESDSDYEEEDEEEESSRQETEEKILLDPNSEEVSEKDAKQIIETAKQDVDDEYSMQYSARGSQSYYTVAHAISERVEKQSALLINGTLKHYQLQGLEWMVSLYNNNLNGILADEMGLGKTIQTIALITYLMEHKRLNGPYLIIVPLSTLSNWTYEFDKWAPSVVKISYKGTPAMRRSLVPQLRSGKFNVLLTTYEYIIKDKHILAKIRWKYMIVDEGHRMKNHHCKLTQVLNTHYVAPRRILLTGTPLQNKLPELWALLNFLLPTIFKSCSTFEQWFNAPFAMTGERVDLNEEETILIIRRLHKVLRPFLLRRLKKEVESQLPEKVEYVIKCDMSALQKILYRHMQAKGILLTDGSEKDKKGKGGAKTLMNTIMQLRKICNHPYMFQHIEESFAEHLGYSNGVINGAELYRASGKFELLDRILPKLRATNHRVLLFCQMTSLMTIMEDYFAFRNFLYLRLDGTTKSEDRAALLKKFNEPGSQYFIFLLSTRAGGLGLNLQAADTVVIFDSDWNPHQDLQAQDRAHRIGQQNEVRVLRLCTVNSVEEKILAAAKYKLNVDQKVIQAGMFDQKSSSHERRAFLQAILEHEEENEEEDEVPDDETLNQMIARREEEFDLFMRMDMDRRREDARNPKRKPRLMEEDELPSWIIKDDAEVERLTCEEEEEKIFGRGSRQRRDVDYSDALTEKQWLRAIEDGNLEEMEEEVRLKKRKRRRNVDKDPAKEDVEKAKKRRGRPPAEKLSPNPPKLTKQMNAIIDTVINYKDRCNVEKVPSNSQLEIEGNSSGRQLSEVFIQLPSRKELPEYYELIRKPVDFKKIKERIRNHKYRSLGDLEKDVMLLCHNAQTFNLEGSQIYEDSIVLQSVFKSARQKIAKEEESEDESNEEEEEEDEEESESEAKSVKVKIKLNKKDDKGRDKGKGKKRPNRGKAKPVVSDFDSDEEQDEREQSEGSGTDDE
T2 sequence (P51532 whole entry, the tested form may be a part): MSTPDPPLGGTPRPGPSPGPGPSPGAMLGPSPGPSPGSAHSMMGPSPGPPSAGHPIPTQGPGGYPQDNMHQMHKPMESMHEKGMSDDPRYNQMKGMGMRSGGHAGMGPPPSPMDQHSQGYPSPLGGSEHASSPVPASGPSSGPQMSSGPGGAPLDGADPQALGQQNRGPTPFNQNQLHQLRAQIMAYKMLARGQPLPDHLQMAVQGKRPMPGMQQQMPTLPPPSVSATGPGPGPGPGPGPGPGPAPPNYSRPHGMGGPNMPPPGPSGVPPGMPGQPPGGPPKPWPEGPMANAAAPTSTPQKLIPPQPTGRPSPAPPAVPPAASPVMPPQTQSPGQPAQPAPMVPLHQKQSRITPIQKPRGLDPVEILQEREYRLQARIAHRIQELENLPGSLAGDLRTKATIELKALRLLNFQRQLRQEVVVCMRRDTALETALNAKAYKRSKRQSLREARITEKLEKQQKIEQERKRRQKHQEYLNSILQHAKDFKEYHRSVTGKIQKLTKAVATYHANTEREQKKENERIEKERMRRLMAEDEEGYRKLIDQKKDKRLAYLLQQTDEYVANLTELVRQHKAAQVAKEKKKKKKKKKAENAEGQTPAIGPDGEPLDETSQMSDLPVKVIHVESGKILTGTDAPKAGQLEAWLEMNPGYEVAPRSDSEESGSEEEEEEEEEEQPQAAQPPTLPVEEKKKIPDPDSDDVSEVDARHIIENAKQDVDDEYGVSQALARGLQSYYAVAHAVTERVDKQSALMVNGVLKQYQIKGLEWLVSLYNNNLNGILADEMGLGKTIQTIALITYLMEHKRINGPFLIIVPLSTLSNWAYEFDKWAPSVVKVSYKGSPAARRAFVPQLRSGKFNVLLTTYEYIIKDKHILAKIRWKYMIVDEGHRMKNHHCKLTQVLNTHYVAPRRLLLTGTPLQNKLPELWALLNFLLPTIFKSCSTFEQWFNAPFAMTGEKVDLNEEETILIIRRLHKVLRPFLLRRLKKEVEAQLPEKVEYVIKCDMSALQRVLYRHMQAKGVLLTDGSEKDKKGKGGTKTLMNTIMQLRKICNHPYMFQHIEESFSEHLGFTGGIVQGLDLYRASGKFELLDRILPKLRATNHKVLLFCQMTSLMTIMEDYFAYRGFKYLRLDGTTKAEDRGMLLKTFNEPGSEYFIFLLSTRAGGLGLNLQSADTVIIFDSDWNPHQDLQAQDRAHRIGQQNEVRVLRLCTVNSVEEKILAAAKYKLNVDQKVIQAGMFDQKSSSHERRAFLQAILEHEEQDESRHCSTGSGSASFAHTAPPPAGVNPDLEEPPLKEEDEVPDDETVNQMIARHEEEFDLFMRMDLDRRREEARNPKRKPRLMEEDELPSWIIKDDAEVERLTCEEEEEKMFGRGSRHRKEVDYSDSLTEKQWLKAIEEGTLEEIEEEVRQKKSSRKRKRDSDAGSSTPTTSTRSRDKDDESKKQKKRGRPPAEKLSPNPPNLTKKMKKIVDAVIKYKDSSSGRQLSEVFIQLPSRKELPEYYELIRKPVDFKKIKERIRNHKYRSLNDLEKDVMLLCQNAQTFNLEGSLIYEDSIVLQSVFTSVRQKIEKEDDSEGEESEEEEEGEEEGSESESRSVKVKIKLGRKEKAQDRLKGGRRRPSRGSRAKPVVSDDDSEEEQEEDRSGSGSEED

SMILES: CS(=O)(=O)n1ccc(C(=O)N[C@@H](COCc2ccc(C(=O)N3CCC(CCCCN4CCN(c5ccc6c(c5)C(=O)N(C5CCC(=O)NC5=O)C6=O)CC4)CC3)cc2)C(=O)Nc2nc(-c3ccccc3)cs2)c1 (stereo partly drawn) [Compound 195, N-((2S)-3-((4-(4-(4-(4-(2-(2,6-dioxopiperidin-3-yl)-1,3-dioxoisoindolin-5-yl)piperazin-1-yl)butyl)piperidine-1-carbonyl)benzyl)oxy)-1-oxo-1-((4-phenylthiazol-2-yl)amino)propan-2-yl)-1-(methylsulfonyl)-1H-pyrrole-3-carboxamide formate]
- DC50 (HiBit-BRM fusion protein): > 10000 nM
- BRM HiBit Degradation Maximum measured (HiBit-BRM fusion protein): C (‘C’ = Maximum degradation <50%)
- DC50 [1]: > 10000 nM
- Dmax [1]: < 50%

SMILES: Cc1ncsc1-c1ccc(CNC(=O)[C@@H]2C[C@@H](O)CN2C(=O)[C@@H](NC(=O)CCCCCNC(=O)CN(C)c2cc(-c3cccc(-c4csc(NC(=O)CNC(=O)c5ccn(S(C)(=O)=O)c5)n4)c3)ccn2)C(C)(C)C)cc1 [Compound 87]
- DC50 (HiBit-BRM fusion protein): > 10000 nM
- BRM HiBit Degradation Maximum measured (HiBit-BRM fusion protein): C (‘C’ = Maximum degradation <50%)
- DC50 [1]: > 10000 nM
- Dmax [1]: < 50%

SMILES: CC(C)(C)n1ccc(C(=O)N[C@@H](COCc2ccc(C(=O)NCCOC3CN(c4ccc5c(c4)C(=O)N(C4CCC(=O)NC4=O)C5=O)C3)cc2)C(=O)Nc2nc(-c3ccccc3)cs2)c1 (stereo partly shown) [Compound 171]
- DC50 (HiBit-BRM fusion protein): < 100 nM
- DC50 [1]: < 100 nM

SMILES: CS(=O)(=O)n1ccc(C(=O)N[C@@H](COCc2ccc(CNC(=O)CCN3CCN(c4ccc5c(c4)C(=O)N(C4CCC(=O)NC4=O)C5=O)CC3)cc2)C(=O)Nc2nc(-c3ccccc3)cs2)c1 (stereo partly drawn) [Compound 215, (2S)-3-([4-[(3-[4-[2-(2,6-dioxopiperidin-3-yl)-1,3-dioxoisoindol-5-yl]piperazin-1-yl]propanamido)methyl]phenyl]methoxy)-2-[(1-methanesulfonylpyrrol-3-yl)formamido]-N-(4-phenyl-1,3-thiazol-2-yl)propanamide; formic acid]
- DC50 (HiBit-BRM fusion protein): 100 to 1000 nM
- BRM HiBit Degradation Maximum measured (HiBit-BRM fusion protein): B (‘B’ = Maximum degradation ≥50% and ≤75%)
- DC50 [1]: 100 to 1000 nM
- Dmax [1]: > 75%

SMILES: Cc1ncsc1-c1ccc(CNC(=O)[C@@H]2C[C@@H](O)CN2C(=O)[C@@H](NC(=O)CCCCCCC(=O)N(C)Cc2cc(-c3cccc(-c4csc(NC(=O)CNC(=O)c5ccn(S(C)(=O)=O)c5)n4)c3)ccn2)C(C)(C)C)cc1 [Compound 153, N-[(2S)-1-[(2S,4R)-4-hydroxy-2-([[4-(4-methyl-1,3-thiazol-5-yl)phenyl]methyl]carbamoyl)pyrrolidin-1-yl]-3,3-dimethyl-1-oxobutan-2-yl]-N′-([4-[3-(2-[2-[(1-methanesulfonylpyrrol-3-yl)formamido]acetamido]-1,3-thiazol-4-yl)phenyl]pyridin-2-yl]methyl)-N′-methyloctanediamide]
- DC50 (HiBit-BRM fusion protein): 100 to 1000 nM
- BRM HiBit Degradation Maximum measured (HiBit-BRM fusion protein): B (‘B’ = Maximum degradation ≥50% and ≤75%)
- DC50 [1]: 100 to 1000 nM
- Dmax [1]: > 75%

SMILES: Cc1cc(C(=O)NCC(=O)Nc2nc(-c3cccc(-c4ccnc(N(C)CC(=O)NCCCCCCCCNC(=O)COc5cccc6c5C(=O)N(C5CCC(=O)NC5=O)C6=O)c4)c3)cs2)cn1S(C)(=O)=O (stereo not shown) [Compound 131, N-(2-((4-(3-(2-((2-((8-(2-((2-(2,6-dioxopiperidin-3-yl)-1,3-dioxoisoindolin-4-yl)oxy)acetamido)octyl)amino)-2-oxoethyl)(methyl)amino)pyridin-4-yl)phenyl)thiazol-2-yl)amino)-2-oxoethyl)-5-methyl-1-(methylsulfonyl)-1H-pyrrole-3-carboxamide]
- DC50 (HiBit-BRM fusion protein): > 10000 nM
- BRM HiBit Degradation Maximum measured (HiBit-BRM fusion protein): C (‘C’ = Maximum degradation <50%)
- DC50 [1]: > 10000 nM
- Dmax [1]: < 50%

SMILES: CS(=O)(=O)n1ccc(C(=O)N[C@@H](CCOCCCC(=O)N2CCN(CC3CN(c4ccc5c(c4)C(=O)N(C4CCC(=O)NC4=O)C5=O)C3)CC2)C(=O)Nc2nc(-c3ccccc3)cs2)c1 (stereo partly drawn) [Compound 183, (2S)-4-[4-[4-([1-[2-(2,6-dioxopiperidin-3-yl)-1,3-dioxoisoindol-5-yl]azetidin-3-yl]methyl)piperazin-1-yl]-4-oxobutoxy]-2-[(1-methanesulfonylpyrrol-3-yl)formamido]-N-(4-phenyl-1,3-thiazol-2-yl)butanamide; formic acid]
- DC50 (HiBit-BRM fusion protein): > 10000 nM
- BRM HiBit Degradation Maximum measured (HiBit-BRM fusion protein): C (‘C’ = Maximum degradation <50%)
- DC50 [1]: > 10000 nM
- Dmax [1]: < 50%

SMILES: CS(=O)(=O)n1ccc(C(=O)N[C@@H](COCc2ccc(CNC(=O)CCOCCOCCOc3ccc4c(c3)C(=O)N(C3CCC(=O)NC3=O)C4=O)cc2)C(=O)Nc2nc(-c3ccccc3)cs2)c1 (stereo partly drawn) [Compound 217, 3-[2-(2-[[2-(2,6-dioxopiperidin-3-yl)-1,3-dioxoisoindol-5-yl]oxy]ethoxy)ethoxy]-N-[(4-[[(2S)-2-[(1-methanesulfonylpyrrol-3-yl)formamido]-2-[(4-phenyl-1,3-thiazol-2-yl)carbamoyl]ethoxy]methyl]phenyl)methyl]propanamide]
- DC50 (HiBit-BRM fusion protein): 100 to 1000 nM
- BRM HiBit Degradation Maximum measured (HiBit-BRM fusion protein): B (‘B’ = Maximum degradation ≥50% and ≤75%)
- DC50 [1]: 100 to 1000 nM
- Dmax [1]: 50 to 75%

SMILES: CS(=O)(=O)n1ccc(C(=O)NCC(=O)Nc2nc(-c3cccc(-c4ccnc(C5(C(=O)NCCOc6ccc7c(c6)C(=O)N(C6CCC(=O)NC6=O)C7=O)CC5)c4)c3)cs2)c1 (stereo not shown) [Compound 161]
- DC50 (HiBit-BRM fusion protein): 100 to 1000 nM
- BRM HiBit Degradation Maximum measured (HiBit-BRM fusion protein): B (‘B’ = Maximum degradation ≥50% and ≤75%)
- DC50 [1]: 100 to 1000 nM
- Dmax [1]: > 75%

SMILES: Cc1ncsc1-c1ccc(CNC(=O)[C@@H]2C[C@@H](O)CN2C(=O)[C@@H](NC(=O)CCCCCCCNC(=O)CN(C)c2cc(-c3cccc(-c4csc(NC(=O)CNC(=O)c5ccn(S(C)(=O)=O)c5)n4)c3)ccn2)C(C)(C)C)cc1 [Compound 88]
- DC50 (HiBit-BRM fusion protein): < 100 nM
- BRM HiBit Degradation Maximum measured (HiBit-BRM fusion protein): B (‘B’ = Maximum degradation ≥50% and ≤75%)
- DC50 [1]: < 100 nM
- Dmax [1]: 50 to 75%

SMILES: CS(=O)(=O)n1ccc(C(=O)NCC(=O)Nc2nc(-c3cccc(-c4cccc(CNC(=O)CCCCCCCCNc5cccc6c5C(=O)N(C5CCC(=O)NC5=O)C6=O)c4)c3)cs2)c1 (stereo not shown) [Compound 20, N-(2-((4-(3′-((9-((2-(2,6-dioxopiperidin-3-yl)-1,3-dioxoisoindolin-4-yl)amino)nonanamido)methyl)-[1,1′-biphenyl]-3-yl)thiazol-2-yl)amino)-2-oxoethyl)-1-(methylsulfonyl)-1H-pyrrole-3-carboxamide]
- DC50 (HiBit-BRM fusion protein): > 10000 nM
- BRM HiBit Degradation Maximum measured (HiBit-BRM fusion protein): C (‘C’ = Maximum degradation <50%)
- DC50 [1]: > 10000 nM
- Dmax [1]: 50 to 75%

SMILES: CS(=O)(=O)n1ccc(C(=O)NCC(=O)Nc2nc(-c3cccc(-c4ccnc(OCCNC(=O)CCOCCOCCNc5cccc6c5C(=O)N(C5CCC(=O)NC5=O)C6=O)c4)c3)cs2)c1 (stereo not shown) [Compound 81, N-[2-[[4-[3-[2-[2-[3-[2-[2-[[2-(2,6-dioxo-3-piperidyl)-1,3-dioxoisoindolin-4-yl]amino]ethoxy]ethoxy]propanoylamino]ethoxy]-4-pyridyl]phenyl]thiazol-2-yl]amino]-2-oxo-ethyl]-1-methylsulfonyl-pyrrole-3-carboxamide]
- DC50 (HiBit-BRM fusion protein): > 10000 nM
- BRM HiBit Degradation Maximum measured (HiBit-BRM fusion protein): C (‘C’ = Maximum degradation <50%)
- DC50 [1]: 100 to 1000 nM
- Dmax [1]: 50 to 75%
